Assays:
carbonyl reductase [1] = assay: Substrate specificity: reductase activity with various ketones and aldehydes in the presence of a coenzyme; format: biochemical, Kluyveromyces aestuarii; set-up: concentration or dose not given beside the values; conditions: reduction reaction, ethyl 4-chloroacetoacetate with NADH taken as 100
Protocol: (§1) A decrease of absorbance at 340 nm, following a decrease of NADH, is measured during the reaction at 30 in a reaction mixture containing 50 mM potassium phosphate buffer (pH 6.5), 0.2 mM NADH, 20 mM ethyl 4-chloroacetoacetate, and the enzyme. One unit of the enzyme of the present invention is defined as the amount required to decrease […] of NADH in 1 min. A protein is quantitated by the dye-binding method using a Protein Assay Kit (BioRad).
(§2) The reductase activity of the enzyme obtained in Example 1 was measured by reacting the enzyme with various ketones and aldehydes in the presence of a coenzyme. The results are shown in Table 2 as the activity relative to that of ethyl 4-chloroacetoacetate in the presence of NADH that is taken as 100.

carbonyl reductase [2] = assay: Substrate specificity: NAD+-dependent dehydrogenase (oxidation) activity; format: biochemical, Kluyveromyces aestuarii; set-up: Relative activity (%): concentration or dose not given beside the values; conditions: for Relative activity (%): oxidation reaction, coenzyme NAD+, reduction of ethyl 4-chloroacetoacetate with NADH taken as 100; for NAD+-dependent dehydrogenase activity (in words): substrate with NAD+
Protocol: The enzyme contacts the substrate, 4-halo-3-hydroxybutyrate ester, in the presence of NAD^+, and the change (per unit time) of the absorbance at 340 nm, which is accompanied with an increase or decrease of NADH, is measured.
as §2

carbonyl reductase [3] = assay: Influence of inhibitors on the carbonyl reductase (residual reductase activity); format: biochemical, Kluyveromyces aestuarii; conditions: for Residual activity: 30, 10 min, activity without any reagent taken as 100
Protocol: as §1
The enzyme obtained in Example 1 was incubated at 30 for 10 min in the presence of various reagents, and its reductase activity to […] was measured. The results are shown in Table 3 as the residual activity to that obtained without any reagent that is taken as 100.

[4] = format: physicochemical, Kluyveromyces aestuarii
Protocol: The enzyme obtained in Example 1 was incubated at pH 8.0 for 10 min at 30, 37, 45, 50, and 55; the reductase activity of each incubation mixture to ethyl 4-chloroacetoacetate was then measured. The results are shown in FIG. 5 as the residual activity to the activity of the untreated enzyme that is taken as 100.

[5] = 4-chloroacetoacetate ester-reducing activity of the purified enzyme; format: biochemical, Kluyveromyces aestuarii; conditions: 20 mM ethyl 4-chloroacetoacetate, 0.2 mM NADH, pH 6.5; after Superdex 200
Protocol: as §1
Kluyveromyces aestuarii IFO 10597 was cultured in 20 L of YM medium containing 24 g/L glucose, 3 g/L yeast extract, 3 g/L malt extract, and 5 g/L peptone (pH 6.0). The cultured cells were harvested by centrifugation. […]
The activity of the carbonyl reductase was detected in three fractions, a passed-through fraction and two gradient-eluted fractions. […]
The concentrated enzyme solution was adjusted to 20% saturation with ammonium sulfate and was applied to a butyl-Toyopearl 650M column (1.6 cm×5 cm) equilibrated with the standard buffer containing 20% saturation ammonium sulfate. […] The peak of the activity of the carbonyl reductase was detected in two eluted fractions. […]
The active fractions obtained by gel filtration were concentrated and analyzed by polyacrylamide gel electrophoresis (PAGE). The enzyme was detected as a substantially single band (FIG. 1). […]

In the case of `CC(=O)C(C)=O` [2,3-butandione], the “Relative activity (%)” value (carbonyl reductase [1]; coenzyme NADH) is reported as 70.6%.

In the case of `CCC(=O)C(C)=O` [2,3-pentandione], the “Relative activity (%)” value (carbonyl reductase [1]; coenzyme NADH) is reported as 8.2%.

For `CC(=O)CC(C)=O` [2,4-pentandione], the “Relative activity (%)” value (carbonyl reductase [1]; coenzyme NADH) was 0%.

With `CC(=O)c1ccccc1` [Acetophenone] the “Relative activity (%)” value (carbonyl reductase [1]; coenzyme NADH) was 0%.

In the case of `CC(C)O` [Isopropanol], the “Relative activity (%)” value (carbonyl reductase [2]) is reported as 0% and the “NAD+-dependent dehydrogenase activity (in words)” value (carbonyl reductase [2]) is reported as “does not substantially dehydrogenate”.

With `CC(=O)C=O` [Methylglyoxal] the “Relative activity (%)” value (carbonyl reductase [1]; coenzyme NADH) was 0%.

`O=S(=O)(F)Cc1ccccc1` [Phenylmethanesulfonyl fluoride] showed a Residual activity (carbonyl reductase [3]; inhibitor 1 mM) of 99.0.

In the case of `CCC=O` [Propionaldehyde], the “Relative activity (%)” value (carbonyl reductase [1]; coenzyme NADH) is reported as 2.5%.

In the case of `CCC1(CC)C(=O)NC(=O)NC1=O` [barbital], the “Inhibition of the carbonyl reductase (in words)” value (carbonyl reductase [3]) is reported as “not and not inhibited” and the Residual activity (carbonyl reductase [3]; inhibitor 1 mM) is reported as 101.

For `O=S(=O)([O-])[O-].[Cu+2]` [copper sulfate], the “Inhibition of the carbonyl reductase (in words)” value (carbonyl reductase [3]) was “significantly inhibited” and the Residual activity (carbonyl reductase [3]; inhibitor 1 mM) was 19.0.

In the case of `CCOC(=O)CC(=O)CCl` [ethyl 4-chloroacetoacetate], the “Relative activity (%)” value (carbonyl reductase [1]; coenzyme NADH) is reported as 100% and the “Relative activity (%)” value (carbonyl reductase [1]; coenzyme NADPH) is reported as 6.4%.

With `CCOC(=O)C[C@@H](C)O` [ethyl (R)-3-hydroxybutyrate] the “Relative activity (%)” value (carbonyl reductase [2]) was 1.9%.

With `CCOC(=O)C[C@@H](O)CCl` [ethyl (R)-4-chloro-3-hydroxybutyrate] the “Relative activity (%)” value (carbonyl reductase [2]) was 0% and the “NAD+-dependent dehydrogenase activity (in words)” value (carbonyl reductase [2]) was “did not show any”.

With `CCOC(=O)C[C@H](C)O` [ethyl (S)-3-hydroxybutyrate] the “Relative activity (%)” value (carbonyl reductase [2]) was 0%.

For `CCOC(=O)C[C@H](O)CCl` [ethyl (S)-4-chloro-3-hydroxybutyrate], the “Relative activity (%)” value (carbonyl reductase [2]) was 0% and the “NAD+-dependent dehydrogenase activity (in words)” value (carbonyl reductase [2]) was “did not show any”.

For `CCOC(=O)CC(C)=O` [ethyl acetoacetate], the “Relative activity (%)” value (carbonyl reductase [1]; coenzyme NADH) was 0%.

In the case of `NC(=O)CI` [iodoacetamide], the “Inhibition of the carbonyl reductase (in words)” value (carbonyl reductase [3]) is reported as “weakly inhibited” and the Residual activity (carbonyl reductase [3]; inhibitor 1 mM) is reported as 84.0.

In the case of `COC(=O)CC(=O)CCl` [methyl 4-chloroacetoacetate], the “Relative activity (%)” value (carbonyl reductase [1]; coenzyme NADH) is reported as 13.1%.

In the case of `COC(=O)CC(C)=O` [methyl acetoacetate], the “Relative activity (%)” value (carbonyl reductase [1]; coenzyme NADH) is reported as 0%.

For `O=C(O)c1cc[c]([Hg][Cl])cc1` [p-chloromercuribenzoic acid], the “Inhibition of the carbonyl reductase (in words)” value (carbonyl reductase [3]) was “significantly inhibited” and the Residual activity (carbonyl reductase [3]; inhibitor 0.05 mM) was 0.

With `O=Cc1cccnc1` [pyridin-3-aldehyde] the “Relative activity (%)” value (carbonyl reductase [1]; coenzyme NADH) was 0%.

In the case of `O=c1c(O)c(-c2ccc(O)c(O)c2)oc2cc(O)cc(O)c12` [quercetin], the “Inhibition of the carbonyl reductase (in words)” value (carbonyl reductase [3]) is reported as “not and not inhibited” and the Residual activity (carbonyl reductase [3]; inhibitor 0.1 mM) is reported as 94.0.

B1: carbonyl reductase: NADH-dependent carbonyl reductase purified from Kluyveromyces aestuarii IFO 10597; amino acid sequence SEQ ID NO: 2 (protein, listed as Kluyveromyces aestuarii)
chain: MTFQHFLRGGLEDKTVPQEPPKEQYPDGVNYLSLFSQKGKLTVITGGAGAIGGALCEGFASCGSDVVILDYKYSPELSSVLESRYGVRSKSYQVDITSSEDVKLVVAKILEDFPDRDINTFVANAGIAWTNGSILNENATPDVWKRVMDVNVQGTYHCAKYVAEVFKQQGHGNLILTASMSSYISNVPNYQTCYNASKAAVRHMAKGFAVEFAHLTNPAGKIRCNSVSPGYTDTALSAFVPVEQRAQWWGLTPMGREALPQELVGAYLYLASDAASFTNGCDIQVDGGYTCV
For B1, the “Thermostability (relatively stable up to)” value [4] was “up to 40”, the “Residual activity after heat incubation” value ([4]; pH 8.0, 10 min, up to 37, untreated enzyme taken as 100) was ≥ 75% and the “Specific activity of the purified enzyme” value [5] was “about 28.6 U/mg”.
